According to PubChem BioAssay AID434987 (Southern Research Specialized Biocontainment Screening …, 2010):
The source made the active and inactive calls. No rule for the calls is given here.

Tested on: M. tuberculosis H37Rv growth inhibition with meropenem
Test: dose response, H37Rv, with and without meropenem (AID 434987);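 also: growth over 7 days at 37 °C before Alamar Blue read on day 9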
[1] = M. tuberculosis H37Rv growth inhibition, measured here: IC50 without meropenem
[2] = M. tuberculosis H37Rv growth inhibition, measured here: IC90 without meropenem
[3] = measured here: IC90 with meropenem

SMILES | IC50 | IC50 [1] | IC90 [2] | IC90 [3]
CCc1sc2nc(SCC(=O)Nc3cc(C)on3)n(-c3cccc(OC)c3)c(=O)c2c1C | > 100 µM (inactive) | > 100 µM | > 100 µM | > 100 µM
Cc1ccsc1C(=O)NNC(=O)c1csc(N2CCOCC2)n1 | 62.7 µM (inactive) | > 100 µM | > 100 µM | > 100 µM
COCCNC(=S)N/N=C1\CC(C)CC(C)(C)C1 (configuration not stated) | 24.5 µM (inactive) | 32.4 µM | 41.1 µM | 27.5 µM
O=C1COc2ccc(C(=O)CCl)cc2N1 | 25.7 µM (inactive) | 24.7 µM | 27 µM | 44.4 µM
CCc1ccc2oc(-c3cc(N)cc(C)c3O)nc2c1 | 76.1 µM (inactive) | 93.2 µM | > 100 µM | > 100 µM
COC(=O)c1cccc(NC(=S)NCCC2=CCCCC2)c1 | > 100 µM (inactive) | > 100 µM | > 100 µM | > 100 µM
Cc1cc(=O)[nH]c(N/N=C/c2c(F)c(F)c(F)c(F)c2F)n1 | 64.6 µM (inactive) | 92.1 µM | > 100 µM | 82.3 µM
Cc1ccc(C2=NN3C(=O)c4ccccc4C3C2)cc1 (configuration not stated) | 11.1 µM | 49 µM | > 100 µM | 35.1 µM
COc1cc(C(F)(F)F)nc2ccc(C#CCOC(=O)Nc3ccccc3)cc12 | > 100 µM (inactive) | > 100 µM | > 100 µM | > 100 µM
O=C1CCNc2c(Cl)cccc21 | > 100 µM (inactive) | > 100 µM | > 100 µM | > 100 µM
O=C(CC12CC3CC(CC(C3)C1)C2)NCc1ccc(F)cc1 | 7.43 µM | > 100 µM | > 100 µM | 10.4 µM
CC(C)(C)c1nc2scc(-c3cccs3)c2c(=O)o1 | > 100 µM (inactive) | > 100 µM | > 100 µM | > 100 µM
COc1ccccc1C(c1c(N)n(C)c(=O)n(C)c1=O)C(C)[N+](=O)[O-] (configuration not stated) | 11.2 µM (inactive) | 21.4 µM | 28.9 µM | 18 µM
CCOC(=O)c1nn(-c2ccccc2)c(C#N)c1NC(=O)c1nn(CC)cc1Br | > 100 µM (inactive) | > 100 µM | > 100 µM | > 100 µM
CCCCn1nc2cc(C(=O)NCC34CC5CC(CC(C5)C3)C4)ccc2c1OCC | 55.5 µM (inactive) | > 100 µM | > 100 µM | > 100 µM
CC(C)C1CC(CCNCc2ccc(N(C)C)cc2)(c2ccccc2)CCO1 (configuration not stated) | 24.5 µM (inactive) | 29 µM | 40.7 µM | 26.9 µM
N#C/C(=C(/O)COC(=O)CCc1ccc(S(=O)(=O)N2CCOCC2)cc1)c1nc2ccccc2[nH]1 | 46.4 µM (inactive) | > 100 µM | > 100 µM | > 100 µM
CC1CC(C)(C)n2c(O)c(N=NC(N)=S)c3cccc1c32 (configuration not stated) | > 100 µM (inactive) | > 100 µM | > 100 µM | > 100 µM
O=C(COc1cccc2cccnc12)N/N=C/c1ccc(O)cc1 | 27 µM | > 100 µM | > 100 µM | > 50 µM
O=C(/C=C/c1ccccc1)NC1CC2CCC1C2 (configuration not stated) | > 100 µM (inactive) | > 100 µM | > 100 µM | > 100 µM

SMILES | IC50 | IC50 [1] | IC90 [2] | IC90 [3]
COc1ccc(-c2cc3nc(C)cc(N4CC(C)CC(C)C4)n3n2)cc1 (configuration not stated) | > 100 µM (inactive) | > 100 µM | > 100 µM | > 100 µM
CN(C)S(=O)(=O)c1ccc(C(=O)OCC2CC2(Cl)Cl)cc1 (configuration not stated) | > 100 µM (inactive) | > 100 µM | > 100 µM | > 100 µM
O=S1(=O)CCO[C@H]2Cc3ccccc3[C@H]2N1Cc1ccc(F)cc1 | > 100 µM (inactive) | > 100 µM | > 100 µM | > 100 µM
CCN(CC)C(=O)COc1ccc(-c2nnc(Nc3ccc(OC)c(C(=O)NC)c3)c3ccccc23)cc1 | 68.8 µM (inactive) | 82.3 µM | > 100 µM | > 100 µM
O=C(Cn1c(=O)c2cccn2c2ccccc21)NCCc1ccc(Cl)cc1 | > 100 µM (inactive) | > 100 µM | > 100 µM | > 100 µM
COc1ccccc1CNC(=O)c1ccc(SC)cc1OC | 49.8 µM (inactive) | 83.5 µM | > 100 µM | > 100 µM
CCCCCc1ccc(-c2ccc(/C=C/C(N)=O)cc2)nc1 | > 100 µM (inactive) | > 100 µM | > 100 µM | > 100 µM
CCCCC(=O)Nc1ccc(NC(=S)NC(=O)CCCCl)cc1OC | > 50 µM (inactive) | 94.9 µM | > 100 µM | > 50 µM
CCOc1ccc(-c2nc(-c3ccccc3C)no2)cc1 | > 100 µM (inactive) | > 100 µM | > 100 µM | > 100 µM
CC(C)C(=O)Nc1ccc(NC(=S)NC(=O)c2ccc([N+](=O)[O-])cc2)cc1 | > 100 µM (inactive) | > 100 µM | > 100 µM | > 100 µM
COc1cc(OC)c(OC)cc1/C=C1\CCC(C2CCCC2)C1=O (configuration not stated) | 55.9 µM (inactive) | 77.5 µM | > 100 µM | > 100 µM
CN1CCN(S(=O)(=O)c2ccc(NC(=O)c3ccc(Br)s3)cc2)CC1 | 74.7 µM (inactive) | > 100 µM | > 100 µM | > 100 µM
Cn1nnnc1Sc1ncnc2scc(-c3ccccc3)c12 | > 100 µM (inactive) | > 100 µM | > 100 µM | > 100 µM
CCNC(=S)N/N=C1\C(=O)c2cccc3cccc1c23 | 5.46 µM | > 100 µM | > 100 µM | 7.61 µM
CC12CCC(C/C1=N/NC(=O)Nc1ccccc1)C2(C)C (configuration not stated) | 14.9 µM | > 100 µM | > 100 µM | > 50 µM
O=C1COc2ccc(C(=O)/C=C/c3ccccc3)cc2N1 | 9.75 µM | 25.6 µM | > 50 µM | 12.2 µM
COc1ccc(-c2cc(C(N)=O)nc(N3CCCCCC3)n2)cc1 | 3.95 µM | > 100 µM | > 100 µM | > 100 µM
COc1cc(CNCCO)cc(Br)c1OCc1ccccc1Cl | 46.2 µM (inactive) | 47.5 µM | 53.7 µM | 52.7 µM
COC(=O)c1c(-c2ccc(OC)cc2)oc2ccc(-c3cc(OC)c(OC)c(OC)c3)cc12 | 7.72 µM | > 100 µM | > 100 µM | > 100 µM
C=C(C)C(=O)O[C@H]1C/C(C)=C\C(=O)/C=C(\C)[C@H](O)[C@@H]2OC(=O)C(=C)[C@@H]21 | 10.3 µM | 41.1 µM | 56 µM | 31.3 µM

SMILES | IC50 | IC50 [1] | IC90 [2] | IC90 [3]
Clc1ccc(Cn2cc(/C=N/n3cnnc3)c3ccccc32)cc1 | 46.9 µM (inactive) | 49 µM | > 50 µM | > 100 µM
Cc1sc2nc(C(C)(C)C)oc(=O)c2c1C | > 100 µM (inactive) | > 100 µM | > 100 µM | > 100 µM
O=C1N=C(N2CCCC2)S/C1=C\c1cccc(Br)c1 | 30.9 µM (inactive) | 55 µM | > 100 µM | > 100 µM
CCOC(=O)c1sc(Nc2nc3c(OC)cccc3s2)cc1C | 98.6 µM (inactive) | 89 µM | > 100 µM | > 100 µM
COc1ccc(NC(=O)CCn2c(=O)c3cccn3c3ccccc32)cc1 | > 100 µM (inactive) | > 100 µM | > 100 µM | > 100 µM
CC(=O)Nc1cccc(-n2nnc(SCC(=O)Nc3ccc(F)c(Cl)c3)n2)c1 | > 100 µM (inactive) | > 100 µM | > 100 µM | > 100 µM
CC(=O)c1c(OC(=O)c2cccc(Cl)c2)c2ccccc2n1C | 29.5 µM (inactive) | 68.6 µM | > 100 µM | > 100 µM
CCOC(=O)c1c(C)[nH]c(C)c1C(=O)COC(=O)c1ccc(S(=O)(=O)N(CC)CC)cc1 | 92.6 µM (inactive) | > 100 µM | > 100 µM | > 100 µM
COc1ccccc1C(=O)Nc1ccc2c3c(cccc13)CC2 | 8.08 µM | 35.9 µM | > 50 µM | > 100 µM
Cc1cc(NC(=O)/C=C/c2ccccc2Cl)n(-c2nc3ccccc3[nH]2)n1 | 1.94 µM | > 100 µM | > 100 µM | > 100 µM
O=C1C=C2C=C[C@@H]3CC2(O1)[C@H]1CCCCN31 | 78.1 µM (inactive) | > 100 µM | > 100 µM | > 100 µM
O=C(OCC(=O)N1CCN(C(=O)c2ccco2)CC1)c1cc(-c2ccco2)nc2ccccc12 | 99.1 µM (inactive) | > 100 µM | > 100 µM | > 100 µM
Cc1cccc(C)c1NC(=O)C1CC2CCC1C2 (configuration not stated) | > 100 µM (inactive) | > 100 µM | > 100 µM | > 100 µM
Cc1nnnn1/C(=C\c1ccccc1)C(=O)OCC(=O)Nc1ccc(Cl)cc1F | 17 µM (inactive) | 26.7 µM | 35.8 µM | 25.5 µM
CCOc1ccc(S(=O)(=O)N(C(=O)c2ccco2)c2cc3sc(=O)oc3c3ccccc23)cc1 | 44.7 µM (inactive) | 41.8 µM | 45.1 µM | 46.9 µM
COc1nc(Nc2nc3ccccc3c(=O)[nH]2)nc2ccc(C)cc12 | > 100 µM (inactive) | > 100 µM | > 100 µM | > 100 µM
COC(=O)c1ccccc1NC(=O)CSCC(=O)Nc1ccc(F)cc1 | 39.7 µM (inactive) | 94.9 µM | > 100 µM | > 100 µM
Nc1nc2ccccc2n1C(=O)c1cccs1 | 5.84 µM | 42.8 µM | > 100 µM | > 100 µM
